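Grown in 96-well plates, cells were treated for 48 hours with each compound at five concentrations. Insufficient inhibition: endpoint recorded as highest concentration tested. GI50 is the concentration that inhibits growth by half.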 The source made the active and inactive calls. No stated cut-off is given here; in the data, active = GI50 up to about 1.1 µM and inactive = higher.
Key:
Test in all cases: inhibition of tumour cell growth, NCI panel, 48 h
KM12 = system: KM12
U-251 = system: U-251
EKVX = system: EKVX
T47D = system: T47D
MDA-MB-435 = system: MDA-MB-435
UACC-62 = system: UACC-62
NCI-H460 = system: NCI-H460
NCI-H226 = system: NCI-H226
PC-3 = system: PC-3
SNB-75 = system: SNB-75
A498 = system: A498
NCI/ADR-RES = system: NCI/ADR-RES
SNB-19 = system: SNB-19
OVCAR-5 = system: OVCAR-5
NCI-H23 = system: NCI-H23
DU-145 = system: DU-145
MDA-N = system: MDA-N
K562 = system: K562
SK-MEL-2 = system: SK-MEL-2
COLO 205 = system: COLO 205
Hs-578T = system: Hs-578T
HT-29 = system: HT-29
NCI-H522 = system: NCI-H522
MOLT-4 = system: MOLT-4
SF-268 = system: SF-268
HCT-15 = system: HCT-15
RXF 393 = system: RXF 393
M14 = system: M14
SF-295 = system: SF-295
HCT-116 = system: HCT-116
UO-31 = system: UO-31
IGROV-1 = system: IGROV-1
SR = system: SR
HL-60 = system: HL-60
ACHN = system: ACHN
SK-OV-3 = system: SK-OV-3
CCRF-CEM = system: CCRF-CEM
Malme-3M = system: Malme-3M
MDA-MB-231 = system: MDA-MB-231
CAKI-1 = system: CAKI-1
HOP-62 = system: HOP-62
SK-MEL-5 = system: SK-MEL-5
SK-MEL-28 = system: SK-MEL-28
MCF7 = system: MCF7
HOP-92 = system: HOP-92
RPMI-8226 = system: RPMI-8226
BT-549 = system: BT-549
OVCAR-3 = system: OVCAR-3
OVCAR-8 = system: OVCAR-8
SN12C = system: SN12C
SW-620 = system: SW-620
LOX IMVI = system: LOX IMVI
TK-10 = system: TK-10
OVCAR-4 = system: OVCAR-4
HCC 2998 = system: HCC 2998
A549 = system: A549
UACC-257 = system: UACC-257
786-0 = system: 786-0
SF-539 = system: SF-539

`C[C@H]1SC(c2ccc(Cl)cc2Cl)N(NC(=O)c2ccncc2)C1=O` (stereo partly drawn) was tested, and the GI50 (KM12) was 36.7 µM (inactive), the GI50 (U-251) was 40.6 µM (inactive) and the GI50 (EKVX) was 31.1 µM (inactive). The GI50 (T47D) was 37.1 µM (inactive), the GI50 (MDA-MB-435) was 23.9 µM (inactive) and the GI50 (UACC-62) was 26.2 µM (inactive). The GI50 (NCI-H460) was 45.5 µM (inactive), the GI50 (NCI-H226) was 18.5 µM (inactive) and the GI50 (PC-3) was 15.1 µM (inactive). For the same compound, the GI50 (SNB-75) was 45.7 µM (inactive), the GI50 (A498) was 12.4 µM (inactive) and the GI50 (NCI/ADR-RES) was 36.9 µM (inactive). The GI50 (SNB-19) was 43.2 µM (inactive), the GI50 (OVCAR-5) was 28.8 µM (inactive) and the GI50 (NCI-H23) was 33.3 µM (inactive). The GI50 (DU-145) was 38.1 µM (inactive), the GI50 (MDA-N) was 23 µM (inactive) and the GI50 (K562) was 23.5 µM (inactive). For the same compound, the GI50 (SK-MEL-2) was 24.3 µM (inactive), the GI50 (COLO 205) was 37.7 µM (inactive) and the GI50 (Hs-578T) was 64.7 µM (inactive). For the same compound, the GI50 (HT-29) was 53 µM (inactive), the GI50 (NCI-H522) was 22.6 µM (inactive) and the GI50 (MOLT-4) was > 10 µM (inactive). The GI50 (SF-268) was 22.5 µM (inactive), the GI50 (HCT-15) was 42 µM and the GI50 (RXF 393) was 14.7 µM (inactive). The GI50 (M14) was 21.8 µM (inactive), the GI50 (SF-295) was 49.1 µM (inactive) and the GI50 (HCT-116) was 20 µM (inactive). For the same compound, the GI50 (UO-31) was 25.3 µM (inactive), the GI50 (IGROV-1) was 41.2 µM (inactive) and the GI50 (SR) was 55.8 µM (inactive). The GI50 (HL-60) was 28.9 µM (inactive), the GI50 (ACHN) was 27.5 µM (inactive) and the GI50 (SK-OV-3) was 65.2 µM (inactive). The GI50 (CCRF-CEM) was 30.1 µM (inactive), the GI50 (Malme-3M) was 64.1 µM (inactive) and the GI50 (MDA-MB-231) was 33.9 µM (inactive). For the same compound, the GI50 (CAKI-1) was > 100 µM (inactive), the GI50 (HOP-62) was 33.7 µM (inactive) and the GI50 (SK-MEL-5) was 19.2 µM (inactive). For the same compound, the GI50 (SK-MEL-28) was 31.3 µM (inactive), the GI50 (MCF7) was 8.59 µM (inactive) and the GI50 (HOP-92) was 45.7 µM (inactive). For the same compound, the GI50 (RPMI-8226) was 35.6 µM (inactive), the GI50 (BT-549) was 36.6 µM (inactive) and the GI50 (OVCAR-3) was 42 µM (inactive). The GI50 (OVCAR-8) was 49.9 µM (inactive) and the GI50 (SN12C) was 45.9 µM (inactive).

In the case of `Clc1ccc(-c2nn3c(CCCCCCCCc4nnc5sc(-c6ccc(Cl)cc6)nn45)nnc3s2)cc1`, the GI50 (KM12) is reported as 11.9 µM (inactive), the GI50 (U-251) is reported as 15.9 µM (inactive) and the GI50 (EKVX) is reported as 20 µM (inactive). For the same compound, the GI50 (T47D) was 4.67 µM (inactive), the GI50 (MDA-MB-435) was 17 µM (inactive) and the GI50 (UACC-62) was 32.4 µM (inactive). The GI50 (NCI-H460) was 26.9 µM (inactive), the GI50 (NCI-H226) was 25.6 µM (inactive) and the GI50 (PC-3) was 11.5 µM (inactive). For the same compound, the GI50 (SNB-75) was 19.9 µM (inactive), the GI50 (SW-620) was 29.2 µM (inactive) and the GI50 (LOX IMVI) was 7.24 µM (inactive). The GI50 (TK-10) was 23.4 µM (inactive), the GI50 (A498) was 24.8 µM (inactive) and the GI50 (NCI/ADR-RES) was 21 µM (inactive). The GI50 (SNB-19) was 20.6 µM (inactive), the GI50 (OVCAR-4) was 8.85 µM (inactive) and the GI50 (OVCAR-5) was 36.3 µM (inactive). For the same compound, the GI50 (NCI-H23) was 27.1 µM (inactive), the GI50 (HCC 2998) was 48.3 µM (inactive) and the GI50 (DU-145) was 11.7 µM (inactive). For the same compound, the GI50 (MDA-N) was 18.2 µM (inactive), the GI50 (K562) was 20 µM (inactive) and the GI50 (A549) was 13.2 µM (inactive). For the same compound, the GI50 (SK-MEL-2) was 29.8 µM (inactive), the GI50 (COLO 205) was 26.6 µM (inactive) and the GI50 (Hs-578T) was 27.2 µM (inactive). For the same compound, the GI50 (UACC-257) was 12.3 µM (inactive), the GI50 (HT-29) was 12.4 µM (inactive) and the GI50 (786-0) was 20.1 µM (inactive). The GI50 (NCI-H522) was 7.91 µM (inactive), the GI50 (MOLT-4) was 7.69 µM (inactive) and the GI50 (SF-268) was 23.2 µM (inactive). For the same compound, the GI50 (HCT-15) was 26.3 µM, the GI50 (RXF 393) was 14.9 µM (inactive) and the GI50 (M14) was 18.7 µM (inactive). For the same compound, the GI50 (SF-295) was 17.6 µM (inactive), the GI50 (HCT-116) was 15.9 µM (inactive) and the GI50 (SF-539) was 19.9 µM (inactive). The GI50 (UO-31) was 12.6 µM (inactive), the GI50 (IGROV-1) was 22.8 µM (inactive) and the GI50 (SR) was 17.1 µM (inactive). For the same compound, the GI50 (ACHN) was 30.1 µM (inactive), the GI50 (SK-OV-3) was 30.1 µM (inactive) and the GI50 (CCRF-CEM) was 11.8 µM (inactive). For the same compound, the GI50 (Malme-3M) was 45.2 µM (inactive), the GI50 (MDA-MB-231) was 27 µM (inactive) and the GI50 (CAKI-1) was 16.3 µM (inactive). For the same compound, the GI50 (HOP-62) was 26.4 µM (inactive), the GI50 (SK-MEL-5) was 13.8 µM (inactive) and the GI50 (SK-MEL-28) was 23.6 µM (inactive). The GI50 (MCF7) was 5.81 µM (inactive), the GI50 (HOP-92) was 31 µM (inactive) and the GI50 (RPMI-8226) was 10.3 µM (inactive). The GI50 (BT-549) was 24.8 µM (inactive), the GI50 (OVCAR-3) was 19.8 µM (inactive) and the GI50 (OVCAR-8) was 18.7 µM (inactive). For the same compound, the GI50 (SN12C) was 17.5 µM (inactive).

Reference: ChEMBL document CHEMBL1201862, “PubChem BioAssay data set” (2004)
